The text below walks through data of patent publication US20230099441A1, “HETEROCYCLIC COMPOUND, APPLICATION THEREOF, AND COMPOSITION CONTAINING SAME” (GenEros Biopharma Ltd., priority 2019, published 2023).

In the test the test system is STAT5 Y694 phosphorylation. The experiment in a line: Protein electrophoresis and blotting of STAT5 Y694 phosphorylation in Jurkat cells stimulated with human interferon beta. Format: cell-based. As to conditions: for Example of Effect 1: Inhibiting Ability (Protein Electrophoresis and Blotting): observed pSTAT5 bands at 10 μM and 100 μM; for Inhibiting Ratio (0% for vehicle control): 1 hour pretreatment, 20 ng/ml human interferon beta 30 minutes, pSTAT5/GAPDH. The procedure:
Example of Effect 1: Protein Electrophoresis and Blotting Experiment
Standard protein electrophoresis and chemiluminescence imaging equipment (Bio-Rad);
Protein lysate RIPA (Lianke Biological; Cat #WB020); Western blot transfer membrane PVDF (Millipore; Cat #IPVH00010);
Jurkat cells (ATCC American Standard Culture Center, TIB152) were cultured in a 6-well plate at a density of 1×10^6/ml with RPMI medium […] 10% fetal bovine serum in a humidified incubator at 37° C. and maintained at 5% carbon dioxide overnight. On the second day, the cells were pretreated with compounds of different concentrations (the mother liquor of the compound prepared by dimethyl sulfoxide was diluted in the medium at the required concentration) for 1 hour, and then stimulated with 20 ng/ml human interferon beta for 30 minutes, it was mixed thoroughly and then placed in an incubator at 37° C. environment. […] Then an appropriate volume of RIPA Lysis Solution was added, it was mixed well, and placed on ice for 1 hour, inverted and mixed several times in the middle. Then, the cell lysate was centrifuged at 12000 rpm at 4° C. for 10 minutes, and the supernatant was transferred to another test tube, aliquoted and stored at −20° C. until use.
An equal volume of protein lysate was mixed with an appropriate 6-fold protein loading buffer (Biyun Tian Biochemical Company P0015F), and the mixture was heated at 95 degrees for 10 minutes, after full denaturation, the protein sample was added to the polyacrylamide gel (self-made, raw material purchased from Soleibao Biotechnology Company A1010, 30% acrylamide solution), and electrophoresis was performed at the appropriate voltage for 1 hour, until the strips were fully separated. It was transferred to a polyvinylidene fluoride membrane according to standard procedures, and blocked with 5% skim milk for 1 hour, and the specified antibody was added, and it was diluted 1:1000 in 3% bovine serum albumin, and it was incubated overnight for four degrees. It was thoroughly rinsed, incubated with the secondary antibody, exposed to chemiluminescence and signals were collected. ImageJ software was used to quantify the obtained chemiluminescence results. The same area was selected, the gray values of STAT5 phosphorylation band and GAPDH band of each sample were analyzed, and the ratio of pSTAT5/GAPDH level was calculated. The value of the solvent-treated sample was 100%, and the remaining samples were converted into relative data in the same proportion, that is, the percentage corresponding to the solvent sample. […] The solvent control group was the same as the test compound group except that DMSO was used instead of the DMSO solution of the test compound. N1 (Pimozide) was a specific positive control.

SMILES strings stand for the structures.

For `O=C(Nc1ccccn1)NC1CCN(C(=O)Cc2ccc(C(F)(F)F)cc2)CC1` [GEN1-163, 1-(pyridin-2-yl)-3-(1-(2-(4-(trifluoromethyl)phenyl)acetyl)piperidin-4-yl)urea], the “Example of Effect 1: Inhibiting Ability (Protein Electrophoresis and Blotting)” value (from here on “Example of Effect 1: Inhibiting Ability”) is “−”. Same read-out and setting: the value for `O=c1oc2ccccc2n1-c1ccn2c(=O)cc(Cc3ccc(F)cc3)cc2c1` [Example P9, 3-(2-(4-fluorobenzyl)-4-oxo-4H-quinazine-8-yl)benzo[d]oxazole-2(3H)-one] was “−”; that for `O=C(c1ccc(C(F)(F)F)cc1)N1CCC(n2c(=O)[nH]c3ccccc32)CC1` [GEN1-017, 1-(1-(4-(trifluoromethyl)benzoyl)piperidin-4-yl)-1H-benzo[d]imidazole-2(3H)-one] was “−”; that for `CN(C)c1ccc(CC(=O)N2CCC(n3c(=O)[nH]c4ccccc43)CC2)cc1` [GEN1-097, 1-(1-(2-(4-(dimethylamino)phenyl)acetyl)piperidin-4-yl)-1H-benzo[d]imidazol-2(3H)-one] was “+”. The same measure, in the same setting: under `O=C(Cc1ccc(C(F)(F)F)nc1)N1CCC(n2c(=O)[nH]c3ccccc32)CC1` [GEN1-027, 1-(1-(2-(6-(trifluoromethyl)pyridin-3-yl)acetyl)piperidin-4-yl)-1H-benzo[d]imidazole-2(3H)-one] stands “+”. On to `O=c1[nH]c2ccccc2n1C1CCN(CCCC(c2ccc(F)cc2)c2ccc(F)cc2)CC1` [Example N1, Pimozide, reference compound], for which the “Example of Effect 1: Inhibiting Ability” value was “+”. Also, the “Inhibiting Ratio (0% for vehicle control)” value (1 μM) was −0.6%. Also, the “Inhibiting Ratio (0% for vehicle control)” value (10 μM) is given as 5.9%. Further, where the note is “100 μM”, the “Inhibiting Ratio (0% for vehicle control)” value was determined as 95.4%.

As for `O=c1[nH]c2ccccc2n1C1CCN(S(=O)(=O)Cc2ccc(C(F)(F)F)cc2)CC1` [GEN1-068, 1-(1-((4-(trifluoromethyl)benzyl)sulfonyl)piperidin-4-yl)-1H-benzo[d]imidazol-2(3H)-one], the “Example of Effect 1: Inhibiting Ability” value is on record as “−”. As to `COc1ccc(CC(=O)N2CCC(n3c(=O)[nH]c4ccccc43)CC2)cc1` [GEN1-070, 1-(1-(2-(4-methoxyphenyl)acetyl)piperidin-4-yl)-1H-benzo[d]imidazol-2(3H)-one], the “Example of Effect 1: Inhibiting Ability” value is recorded as “−”.

In the case of `O=C(Cc1ccc(C(F)(F)F)cc1)N1CCC(n2c(=O)[nH]c3cc(C(F)(F)F)ccc32)CC1` [GEN1-005, 5-(trifluoromethyl)-1-(1-(2-(4-(trifluoromethyl)phenyl)acetyl)piperidin-4-yl)-1H-benzo[d]imidazole-2(3H)-one], the “Example of Effect 1: Inhibiting Ability” value was “+”. In addition, the “Inhibiting Ratio (0% for vehicle control)” value (1 μM) is on record as 28.0%. In addition, for the setting “10 μM”, the “Inhibiting Ratio (0% for vehicle control)” value is recorded as 44.4%. Further, the “Inhibiting Ratio (0% for vehicle control)” value (100 μM) is on record as 95.6%.

In the case of `O=C(Cc1ccc(C(F)(F)F)cc1)N1CCC(n2c(=O)[nH]c3ccc(-c4ccccc4)cc32)CC1` [GEN1-090, 6-phenyl-1-(1-(2-(4-(trifluoromethyl)phenyl)acetyl)piperidin-4-yl)-1H-benzo[d]imidazol-2(3H)-one], the “Example of Effect 1: Inhibiting Ability” value is recorded as “+”. Regarding `O=C(Cc1ccc(C(F)(F)F)cn1)N1CCC(n2c(=O)[nH]c3ccccc32)CC1` [GEN1-028, 1-(1-(2-(5-(trifluoromethyl)pyridin-2-yl)acetyl)piperidin-4-yl)-1H-benzo[d]imidazole-2(3H)-one], the “Example of Effect 1: Inhibiting Ability” value was “−”. For the same compound, under “1 μM”, the “Inhibiting Ratio (0% for vehicle control)” value worked out at 14.5%. Moreover, under “10 μM”, the “Inhibiting Ratio (0% for vehicle control)” value is 32.6%. Further, under “100 μM”, the “Inhibiting Ratio (0% for vehicle control)” value was determined as 93.3%. As to `CC(C)(C)c1ccc(CC(=O)N2CCC(N3CC(=O)Nc4ccccc43)CC2)cc1` [GEN1-122, 4-(1-(2-(4-(tert-butyl)phenyl)acetyl)piperidin-4-yl)-3,4-dihydroquinoxaline-2(1H)-one], the “Example of Effect 1: Inhibiting Ability” value is on record as “+”.

Regarding `O=C(Cc1ccc(C(F)(F)F)cc1)N1CCC(n2c(=O)[nH]c3ccc(C(F)(F)F)cc32)CC1` [GEN1-009, 6-(trifluoromethyl)-1-(1-(2-(4-(trifluoromethyl)phenyl)acetyl)piperidin-4-yl)-1H-benzo[d]imidazole-2(3H)-one], the “Example of Effect 1: Inhibiting Ability” value was “+”.

Regarding `O=C(Cc1ccc(C(F)(F)F)cc1)N1CCC(n2c(=O)n(O)c3ccccc32)CC1` [GEN1-059, 1-hydroxy-3-(1-(2-(4-(trifluoromethyl)phenyl)acetyl)piperidin-4-yl)-1H-benzo[d]imidazol-2(3H)-one], the “Example of Effect 1: Inhibiting Ability” value was “−”. With `O=c1[nH]c2ccccc2n1-c1ccn2c(=O)cc(Cc3ccc(F)cc3)cc2c1` [Example X9, 2-(4-fluorobenzyl)-8-(2-oxo-2,3-dihydro-1H-benzo[d]imidazol-1-yl)-4H-quinazine-4-one], the “Example of Effect 1: Inhibiting Ability” value was “+”. Besides, the “Inhibiting Ratio (0% for vehicle control)” value (1 μM) is given as 6.0%. The “Inhibiting Ratio (0% for vehicle control)” value (10 μM) turned out to be 44.3%. The “Inhibiting Ratio (0% for vehicle control)” value (100 μM) turned out to be 100.0%. Take `NS(=O)(=O)c1cccc2[nH]c(=O)n(C3CCN(C(=O)Cc4ccc(C(F)(F)F)cc4)CC3)c12` [GEN1-094, 2-oxo-3-(1-(2-(4-(trifluoromethyl)phenyl)acetyl)piperidin-4-yl)-2,3-dihydro-1H-benzo[d]imidazol-4-sulfonamide]: the “Example of Effect 1: Inhibiting Ability” value is “+”. Same read-out and setting: under `O=C(Cc1ccc(O)cc1)N1CCC(n2c(=O)[nH]c3ccccc32)CC1` [GEN1-071, 1-(1-(2-(4-hydroxyphenyl)acetyl)piperidin-4-yl)-1H-benzo[d]imidazol-2(3H)-one] stands “−”; under `O=C(Cc1ccc(C(F)(F)F)cc1)N1CCC(n2c(=O)[nH]c3ccc(O)cc32)CC1` [GEN1-012, 6-hydroxy-1-(1-(2-(4-(trifluoromethyl)phenyl)acetyl)piperidin-4-yl)-1H-benzo[d]imidazole-2 (3H)-one], “+”.

As to `O=C(Cc1ccc(C(F)(F)F)cc1)N[C@H]1C[C@@H](n2c(=O)[nH]c3ccccc32)C1` [GEN1-024, N-((1s,3s)-3-(2-oxo-2,3-dihydro-1H-benzo[d]imidazol-1-yl)cyclobutyl)-2-(4-(trifluoromethyl)phenyl)acetamide], the “Example of Effect 1: Inhibiting Ability” value is “−”. The same measure, in the same setting: the value for `O=C(Cc1ccc(C(F)(F)F)cc1)N[C@H]1C[C@H](n2c(=O)[nH]c3ccccc32)C1` [GEN1-025, N-((1r,3r)-3-(2-oxo-2,3-dihydro-1H-benzo[d]imidazol-1-yl)cyclobutyl)-2-(4-(trifluoromethyl)phenyl)acetamide] was “−”; that for `O=C(Cc1ccc(N2CCOCC2)cc1)N1CCC(n2c(=O)[nH]c3ccccc32)CC1` [GEN1-034, 1-(1-(2-(4-morpholinophenyl)acetyl)piperidin-4-yl)-1H-benzo[d]imidazole-2(3H)-one] was “−”. Regarding `COc1ccc2c(c1)[nH]c(=O)n2C1CCN(C(=O)Cc2ccc(C(F)(F)F)cc2)CC1` [GEN1-007, 5-methoxy-1-(1-(2-(4-(trifluoromethyl)phenyl)acetyl)piperidin-4-yl)-1H-benzo[d]imidazole-2(3H)-one], the “Example of Effect 1: Inhibiting Ability” value is recorded as “+”. Moreover, the “Inhibiting Ratio (0% for vehicle control)” value (1 μM) is 42.4%. In addition, where the note is “10 μM”, the “Inhibiting Ratio (0% for vehicle control)” value is 54.8%. In addition, the “Inhibiting Ratio (0% for vehicle control)” value (100 μM) is 96.6%. On the same counts, the results for `O=C(Cc1ccccc1C(F)(F)F)N1CCC(n2c(=O)[nH]c3ccccc32)CC1` [GEN1-030, 1-(1-(2-(2-(trifluoromethyl)phenyl)acetyl)piperidin-4-yl)-1H-benzo[d]imidazole-2(3H)-one] are “−”, 15.7%, 19.4% and 94.0%.
